Experimental data published in US20130108645A1, “METHODS FOR ENHANCING AXONAL REGENERATION” (THE JOHNS HOPKINS UNIVERSITY, priority 2010, published 2013).

Experiments:
[1] = test system: WT mice; assay: Sciatic nerve crush in WT mice with systemic BACE1 inhibitor infusion via Alzet pumps; assay type: in vivo, mouse
From the text: The inhibitors were systemically administered via subcutaneous catheters from Alzet pumps implanted in the interscapular space for 7 or 15 days.
Mice were deeply anesthetized with isoflurane and left sciatic nerves in the mid thigh or at the sciatic notch level were exposed and crushed by pulling tight a loop of 8-0 nylon black sutures for 30-40 seconds. The crush sites were marked with a 10-0 nylon black suture going through the epineurium only. For sciatic nerve transection, a small ˜2 mm piece of nerve was dissected out and the two nerve stumps were turned away from each other to prevent axonal regeneration to distal stumps. The distal stumps and contralateral nerves were collected 1-15 days post-transection.
Alzet pumps were filled, primed, and implanted as previously described in Farah, J. Neurosci. […] Neurol. […] The latter compound was synthesized by the NeuroTranslational team at the Brain Science Institute at Johns Hopkins University. Both inhibitors were dissolved in DMSO. According to the manufacturer's data, the pump continuously supplied 1-30 μg/hour of inhibitor for 7 days. To minimize the delay between implantation and the onset of release, the filled pumps were incubated in 1×PBS at 37° C. for 4 hours immediately before implantation. The mice were anesthetized by inhalation of isoflurane, and an incision, about 1.5 cm long, was made in the skin on top of the interscapular space. A filled Alzet pump was implanted subcutaneously into each mouse and incisions were closed with 9 mm stainless steel wound clips.
For fluorescent microscopy and immunostaining, mice were deeply anesthetized with 10% chloral hydrate and killed by transcardial perfusion with 1×PBS followed by 2% paraformaldehyde in […] phosphate buffer, pH 7.4, for 10-15 minutes. Tissues were then postfixed in the same fixative for 4-16 hr at 4° C. Sciatic nerves and gastrocnemius muscles were cryoprotected in 30% sucrose in 1×PBS overnight and quickly frozen in cold 2-methylbutane. Tissues were frozen sectioned on a cryostat at thickness of 10 or 20 μm for sciatic nerves and 50 μm for gastrocnemius muscles. In addition, the hind feet were decalcified, cryoprotected in 30% sucrose in 1×PBS, and sectioned at 50 μm thickness. Sciatic nerves were sectioned longitudinally using a Leica cryostat (model CM3050S, Leica Microsystems, Buffalo Grove, Ill.). Gastrocnemius muscles and foot were cross-sectioned by a freezing sliding microtome (Microm HM 450, Thermo Scientific, Waltham, Mass.).
To visualize YFP-positive degenerating and regenerating axons, animals were perfused as described above and sciatic nerves were collected. Whole-mounted sciatic nerves were imaged under a confocal microscope and Z-stack images were collected through the depth of the nerves.
For ultrastructural analyses, nerves were postfixed in OsO4 and embedded in Epon. Cross sections, at 1 μm thickness, were stained for toluidine blue and examined under light microscopy with 100× oil-immersion objective. 70 nm thin sections were obtained and stained for citrate/uranyl acetate. Electron micrographs were acquired using a Hitachi 7600 or Zeiss Libra transmission electron microscope.

[2] = test system: WT DRG explants; assay: Axonal outgrowth of dorsal root ganglia (DRG) explants; details: 50 nM, 4 days post culture
Protocol: Postnatal (P4-5) primary mouse DRG from WT littermate and BACE1 KO pups were established. Axonal outgrowth at 2 and 4 days post culture were measured.
Postnatal day 4-5 dorsal root ganglia (DRG) were dissected out of WT and BACE1 KO mice, and were maintained in neurobasal medium containing 2% B27 supplement and 50 ng/ml NGF (all reagents from Invitrogen, Carlsbad, Calif.). In some of the WT DRG explants, 50 nM-1 μM BACE1 inhibitor IV was added daily to the media. At least 8 explants were used for each condition. Axonal outgrowth of the DRG was monitored daily under phase-contrast microscopy, and images were acquired with Openlab software at 2 and 4 days post culture. The axon lengths were measured from the borders of the explants borders to the tips of axons using ImageJ (http://rsb.info.nih.gov/ij/).

[3] = Paclitaxel administration, body weight; assay type: in vivo, mouse; details: 30 mg/kg intravenously via tail vein, 3 times a week for 2 weeks; WT and BACE1 KO mice
Protocol: Paclitaxel (LC laboratories) was dissolved in 100% ethonal. Equal volumes of paclitaxel solution and cremophor (Sigma-Aldrich, St. Louis, Mo.) were vigorously vortexed for 10 minutes. Ice cold saline (80% of the final volume) was added to freshly made paclitaxel/cremophor solution immediately before injection. 30 mg/kg body weight of paclitaxel in this solution was injected intravenously via tail vein at 3 times a week for 2 weeks.

For C[C@@H](NC(=O)c1cc(C(=O)N[C@@H](Cc2ccccc2)[C@H](O)CNC2CC2)cc(N(C)S(C)(=O)=O)c1)c1ccccc1 [BACE1 inhibitor IV], the “YFP-positive axonal debris in whole-mounted YFP-WT nerve” value ([1]; mouse, in vivo) was “more fragmented”, the “post-phagocytic macrophages in electron micrograph of WT nerve” value ([1]; mouse, in vivo) was “More post-phagocytic macrophages” and the “regenerated YFP-positive axons in whole-mounted YFP-WT nerve” value ([1]; mouse, in vivo) was “numerous regenerated YFP-positive axons”. The “regenerated axons in electron micrograph of WT nerve” value ([1]; mouse, in vivo) was “more regenerated axons” and the “increase of axonal outgrowth of WT DRG explants” value [2] was 98.0%.
With CC(=O)O[C@H]1C(=O)[C@@]2(C)[C@H]([C@H](OC(=O)c3ccccc3)[C@]3(O)C[C@H](OC(=O)[C@H](O)[C@@H](NC(=O)c4ccccc4)c4ccccc4)C(C)=C1C3(C)C)[C@]1(OC(C)=O)CO[C@@H]1C[C@@H]2O [Paclitaxel, paclitaxel] the weight loss [3] was “no significant weight loss”.
With COc1ccc([C@]2(c3ccc(F)c(-c4cccnc4F)c3)N=C(N)N(C)C2=O)cc1C [WAY 258131] the “β tubulin III staining of intra-plantar nerves of WT foot” value ([1]; 2 weeks after sciatic nerve crush and treatment) was “β tubulin III positive fibers are regenerated axons”.
